Assay results: ChEMBL document CHEMBL1201862, “PubChem BioAssay data set” (2004)
Each block holds one compound with its values, some of them ahead of it. Active and inactive are the calls of the source.

Columns and labels:
[1] = cells; format: functional, cell-based
[2] = target: T1, Carboxy-terminal domain RNA polymerase II polypeptide A small phosphatase 1 (Homo sapiens, UniProt Q9GZU7); assay: CTDSP1 inhibitors, concentration-response, biochemical, absorbance readout, ultra-high-throughput screen actives (AID 540297); format: functional
T1 sequence (Q9GZU7 whole entry): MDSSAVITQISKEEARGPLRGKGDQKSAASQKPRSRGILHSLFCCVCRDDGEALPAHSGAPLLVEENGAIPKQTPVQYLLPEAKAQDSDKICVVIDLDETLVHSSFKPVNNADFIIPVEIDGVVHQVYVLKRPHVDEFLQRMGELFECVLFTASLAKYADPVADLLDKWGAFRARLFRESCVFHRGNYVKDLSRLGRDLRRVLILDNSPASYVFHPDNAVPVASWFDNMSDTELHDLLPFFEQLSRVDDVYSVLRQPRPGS

[3] = cells; format: functional, cell-based; remark: listed apart in the source
[4] = target: Large T antigen (Simian virus 40, UniProt P03070); format: functional, Betapolyomavirus macacae;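 note: Confirmatory-stage PubChem screen for compounds that inhibit SV40 T antigen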
[5] = target: T2, Rac GTPase-activating protein 1 (Homo sapiens, UniProt Q9H0H5); assay: blockers of MgcRacGAP-driven Rac1 GTP hydrolysis – biochemical, ADP Hunter fluorescence, primary and confirmatory, confirmation (AID 624330); format: functional
T2 sequence (Q9H0H5 whole entry): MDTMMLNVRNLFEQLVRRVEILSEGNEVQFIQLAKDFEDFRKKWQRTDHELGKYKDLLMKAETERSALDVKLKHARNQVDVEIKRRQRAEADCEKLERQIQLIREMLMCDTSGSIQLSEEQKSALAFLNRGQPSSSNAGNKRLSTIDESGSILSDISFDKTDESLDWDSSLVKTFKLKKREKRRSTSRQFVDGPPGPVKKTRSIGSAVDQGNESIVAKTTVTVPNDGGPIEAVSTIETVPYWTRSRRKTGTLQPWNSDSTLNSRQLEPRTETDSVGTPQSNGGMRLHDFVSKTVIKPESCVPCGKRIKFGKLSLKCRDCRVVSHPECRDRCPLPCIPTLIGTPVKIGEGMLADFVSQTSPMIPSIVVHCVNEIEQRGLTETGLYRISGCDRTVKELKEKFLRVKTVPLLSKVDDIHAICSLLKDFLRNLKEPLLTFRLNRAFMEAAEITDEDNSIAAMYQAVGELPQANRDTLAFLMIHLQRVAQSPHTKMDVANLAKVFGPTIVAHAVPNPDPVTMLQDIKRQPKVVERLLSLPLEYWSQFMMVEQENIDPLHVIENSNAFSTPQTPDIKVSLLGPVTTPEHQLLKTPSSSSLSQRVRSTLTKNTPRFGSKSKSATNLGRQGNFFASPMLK

[6] = target: T3, Protein skinhead-1 (Caenorhabditis elegans, UniProt P34707); format: functional
T3 sequence (P34707 whole entry): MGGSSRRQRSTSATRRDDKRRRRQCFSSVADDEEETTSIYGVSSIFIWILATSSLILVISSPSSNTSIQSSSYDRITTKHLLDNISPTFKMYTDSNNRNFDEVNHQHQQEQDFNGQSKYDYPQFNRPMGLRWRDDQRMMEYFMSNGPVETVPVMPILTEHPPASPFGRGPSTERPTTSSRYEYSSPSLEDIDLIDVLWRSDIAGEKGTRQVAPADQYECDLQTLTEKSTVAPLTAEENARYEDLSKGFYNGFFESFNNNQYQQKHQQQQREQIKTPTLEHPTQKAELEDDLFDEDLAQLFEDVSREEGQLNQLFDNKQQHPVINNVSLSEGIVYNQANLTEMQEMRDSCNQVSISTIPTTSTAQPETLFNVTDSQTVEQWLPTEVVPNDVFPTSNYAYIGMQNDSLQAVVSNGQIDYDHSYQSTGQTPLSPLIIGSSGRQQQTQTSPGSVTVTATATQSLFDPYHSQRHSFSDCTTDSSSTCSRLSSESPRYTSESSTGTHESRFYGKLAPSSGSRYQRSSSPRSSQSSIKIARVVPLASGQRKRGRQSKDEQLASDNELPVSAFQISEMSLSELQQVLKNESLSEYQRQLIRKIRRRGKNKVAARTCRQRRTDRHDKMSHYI

[7] = target: Paired box protein Pax-8 (Homo sapiens, UniProt Q06710); assay: PAX8 transcriptional activity inhibition in RMG-I – RMG-I cells, luciferase, cherry-pick, dose response (AID 687027); format: functional, cell-based;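 note: luciferase reporter driven by Pax8 target thyroperoxidase promoter measured by SteadyGlo luminescence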
[8] = off-target signal loss in HeLa-CEM21 co-culture – HeLa F-luc CTL cells, cherry-picked, counter-screen for HIV-1 Env fusion inhibitor project, dose response (AID 652040); format: functional, cell-based;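 note: potency for signal decrease marking cytotoxic or nonspecific inhibition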
[9] = viability of uninfected HEp-2 cells – cell-based, HTS, cytotoxicity control for RSV inhibitor project, dose response (AID 2410); format: functional; conditions: human respiratory syncytial virus
[10] = P. falciparum Dd2 growth inhibitors, dose response, SYBR Green, cherry-picked samples (AID 1159567); format: functional, cell-based

Large T antigen, sequence (P03070 whole entry): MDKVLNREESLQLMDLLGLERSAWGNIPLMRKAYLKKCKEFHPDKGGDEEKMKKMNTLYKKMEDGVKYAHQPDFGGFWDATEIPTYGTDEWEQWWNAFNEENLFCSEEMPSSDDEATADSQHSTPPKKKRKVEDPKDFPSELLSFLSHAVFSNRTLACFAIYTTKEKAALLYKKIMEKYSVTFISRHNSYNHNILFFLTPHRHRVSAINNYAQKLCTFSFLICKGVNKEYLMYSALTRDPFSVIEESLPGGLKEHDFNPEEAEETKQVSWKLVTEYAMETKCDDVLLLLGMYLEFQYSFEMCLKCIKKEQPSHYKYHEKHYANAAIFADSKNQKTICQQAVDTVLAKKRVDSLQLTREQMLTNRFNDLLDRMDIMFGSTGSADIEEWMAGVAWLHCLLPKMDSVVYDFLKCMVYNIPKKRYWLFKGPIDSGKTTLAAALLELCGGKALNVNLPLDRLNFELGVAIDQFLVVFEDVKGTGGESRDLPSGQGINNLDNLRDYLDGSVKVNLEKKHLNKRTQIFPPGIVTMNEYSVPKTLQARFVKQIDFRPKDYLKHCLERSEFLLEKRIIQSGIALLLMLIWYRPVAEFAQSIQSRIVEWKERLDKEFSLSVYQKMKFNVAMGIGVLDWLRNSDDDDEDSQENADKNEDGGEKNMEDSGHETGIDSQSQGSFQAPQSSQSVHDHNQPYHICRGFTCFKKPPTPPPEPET
Paired box protein Pax-8, sequence (Q06710 whole entry, the tested form may be a part): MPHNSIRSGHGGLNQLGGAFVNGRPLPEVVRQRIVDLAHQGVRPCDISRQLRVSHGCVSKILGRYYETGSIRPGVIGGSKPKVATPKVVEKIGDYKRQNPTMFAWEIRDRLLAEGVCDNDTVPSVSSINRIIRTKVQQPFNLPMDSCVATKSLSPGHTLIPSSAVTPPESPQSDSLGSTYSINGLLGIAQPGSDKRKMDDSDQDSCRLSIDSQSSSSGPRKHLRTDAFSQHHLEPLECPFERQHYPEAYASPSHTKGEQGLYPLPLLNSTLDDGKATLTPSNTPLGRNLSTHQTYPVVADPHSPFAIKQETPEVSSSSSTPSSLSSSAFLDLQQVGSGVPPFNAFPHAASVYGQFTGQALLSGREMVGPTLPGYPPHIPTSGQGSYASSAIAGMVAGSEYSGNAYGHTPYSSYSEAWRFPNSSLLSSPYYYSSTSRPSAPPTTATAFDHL

Compound: Cc1ccc(NC(=O)N2CCC(NC(=O)c3cccc(C)c3)CC2)cc1
EC50 [1]: > 350 µM (not active)
IC50 [2]: 10.5 µM (active)
EC50 [3]: > 350 µM (not active)

Compound: CC(C(=O)Nc1ccccc1-c1ccccc1)N1CCN(C(=O)c2ccccc2)CC1 (configuration not stated)
EC50 [1]: > 350 µM (not active)
EC50 [3]: > 350 µM (not active)

IC50 [2]: 18.7 µM (active)
Compound: N#CC1(NC(=O)COc2ccccc2[N+](=O)[O-])CCCCC1

IC50 [4]: 31 µM (active)
IC50 [5]: 115 µM (active)
Compound: Cc1ccc(C2C=NN(c3ccccc3)C2=O)cc1 (configuration not stated)

IC50 [6]: > 100 µM (inactive)
Compound: CSc1ccc(-c2nnn(Cc3ccc(Br)cc3)n2)cc1

AC50 [7]: 59.2 µM (active)
Compound: CCOC(=O)C1=CN(Cc2cccc(-c3cccnc3)c2)S(=O)(=O)N(C)C1C (configuration not stated)

IC50 [6]: > 100 µM (inactive)
Compound: Nc1ncc(-c2ccc(-c3ccccc3)cc2F)cc1-c1ccccc1F

IC50 [4]: 28.6 µM (active)
Compound: Nc1ncnc(O)c1/N=C/c1ccccc1

AC50 [7]: 16.4 µM (active)
Compound: C[C@@H]1CCCCO[C@H](CN(C)C(=O)Nc2ccc(C(F)(F)F)cc2)[C@H](C)CN([C@@H](C)CO)C(=O)c2cc(NS(=O)(=O)c3ccc(Cl)cc3)ccc2O1

Compound: CC(=O)c1ccc([C@H]2C[C@@]34CN(C(=O)OC(C)(C)C)S(=O)(=O)[C@H]3C[C@H]2O4)cc1
AC50 [8]: 36.6 µM (active)

IC50 [4]: 8.55 µM (active)
IC50 [5]: 25.2 µM (active)
Compound: CC/N=c1\scc(C)n1/N=C/c1cc(Br)c(O)c(OC)c1
CC50 [9]: 15.6 µM (active)

Compound: C[C@@H]1CN([C@H](C)CO)S(=O)(=O)c2ccc(C#C[C@@H](C)O)cc2O[C@H]1CN(C)C(=O)Nc1ccccc1
AC50 [10]: 13 µM (active)

Compound: COc1ccc(NC(=O)Nc2ccc3c(c2)CC(=O)N([C@H](C)CO)C[C@H](C)[C@@H](CN(C)CC2CCCCC2)O3)cc1
AC50 [10]: 4.53 µM (active)

Compound: COc1ccc(-c2ccc([C@@H]3[C@H]4CN(C(=O)NC(C)C)CC(=O)N4[C@H]3CO)cc2)cc1
AC50 [10]: 10 µM (active)

Compound: COc1ccccc1-c1ccccc1[C@H]1[C@H](C#N)N(C(=O)C2CCC2)[C@H]1CO
AC50 [10]: 12 µM (active)

Compound: COc1ccc(NC(=O)Nc2ccc3c(c2)[C@H]2C[C@H](CC(=O)N4CCc5ccccc5C4)O[C@H](CO)[C@H]2O3)cc1
AC50 [10]: 7.78 µM (active)
